pKd, pKi: −log10 of the molar value.
What was measured:
[1] = Displacement of tritium-labeled resorcinol amide ligand from HSP90 by scintillation proximity assay
Heat shock protein HSP90 = Heat shock protein HSP90 (Homo sapiens, UniProt P07900+P08238); assay: Inhibition of HSP90 in human H1299 cells assessed as degradation of Akt protein after 24 hrs by luminex assay; assay type: cell-based
[2] = Binding affinity to HSP90 by isothermal titration calorimetry assay

Compound	pKi [1]	IC50 (Heat shock protein HSP90) [µM]	pKd [2]
COc1cc(-c2nc(C)nc3[nH]c(C)cc23)c(Cl)cc1Cl	5.70	–	–
Cc1cc(-c2cccn2C(=O)OC(C)(C)C)nc(N)n1	5.43	–	–
CCc1[nH]c2nc(C)nc(-c3cc(OC)c(Cl)cc3Cl)c2c1C#N	7.82	0.5	–
COc1cc(-c2nc(C)nc3[nH]cc(C(C)=O)c23)c(Cl)cc1Cl	6.70	–	–
COc1cc(-c2nc(C)nc3[nH]c(C)c(Cl)c23)c(Cl)cc1Cl	7.00	–	–
COc1cc(-c2nc(C)nc3[nH]cc(C#N)c23)c(Cl)cc1Cl	–	1	–
COc1cc(-c2cc(N)nc(C)n2)c(Cl)cc1Cl	5.00	–	–
CC(C)(C)OC(=O)n1cccc1-c1cc(Cl)nc(N)n1	6.52	45	–
COc1cc(-c2cc(C)nc(N)n2)c(Cl)cc1Cl	6.85	10	–
COc1cc(-c2nc(C)nc3[nH]c(C)c(C#N)c23)c(Cl)cc1Cl	–	0.7	–
COc1cc(-c2nc(C)nc3[nH]cc(F)c23)c(Cl)cc1Cl	6.70	–	–
Cc1cc(-c2ccc(Cl)cc2Cl)nc(N)n1	6.46	10.5	6.98
COc1cc(-c2nc(C)nc3[nH]cc(Cl)c23)c(Cl)cc1Cl	6.70	2	–
Cc1cc(-c2ccccc2)nc(N)n1	4.66	> 10	–
COc1ccccc1-c1cc(C)nc(N)n1	5.10	–	5.46
COc1cc(-c2nc(C)nc3[nH]ccc23)c(Cl)cc1Cl	5.77	–	–
COc1cc(Cl)ccc1-c1cc(C)nc(N)n1	5.57	27	–
